Earlier results as cited in patent US10206884B2, “Microcapsules with polymeric coating comprising a lipid and an active agent” (FRESENIUS KABI DEUTSCHLAND GMBH, priority 2013, dated 2019).

solubility in water: only poorly soluble in water
Structure (SMILES): CCCC(=O)OCC(COC(=O)CCC)OC(=O)CCC [tributyrin, 1,3-di(butanoyloxy)propan-2-yl butanoate]
